This is an account of results in US20030207340A1, “Sequences encoding human neoplastic marker” (priority 2002, published 2003).

As usually defined, the EC50 is the concentration that produces a half-maximal response.

One test concerns the target T1, ttNOX (truncated tNOX) (Homo sapiens, UniProt Q16206).
T1 construct: made in house; host or cells: E. coli BL21 (DE3), vector pET-11b; crude induced bacterial extract
T1 sequence (Q16206 220-610): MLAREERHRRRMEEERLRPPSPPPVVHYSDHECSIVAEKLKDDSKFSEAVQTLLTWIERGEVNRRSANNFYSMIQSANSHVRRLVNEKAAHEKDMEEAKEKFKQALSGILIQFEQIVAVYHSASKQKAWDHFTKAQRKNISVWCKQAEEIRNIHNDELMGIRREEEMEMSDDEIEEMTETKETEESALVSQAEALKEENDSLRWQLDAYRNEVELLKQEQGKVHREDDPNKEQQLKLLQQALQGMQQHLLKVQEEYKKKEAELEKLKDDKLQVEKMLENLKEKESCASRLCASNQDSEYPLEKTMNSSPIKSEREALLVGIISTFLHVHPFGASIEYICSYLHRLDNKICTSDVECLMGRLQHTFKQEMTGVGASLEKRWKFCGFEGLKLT
As to the kind of experiment: NADH oxidase activity of ttNOX expressed in E. coli (induced bacterial extract). The test is classed as biochemical. From the text: tNOX cDNA from clone 1 was expressed in E. coli either as a truncated form (ttNOX) (beginning at M220), as a fusion protein with six histidine residues (ttNOX-his) fused to the amino terminus of ttNOX, or as a processed tNOX (beginning at G327). First, the open reading frame of ttNOX DNA and nucleotides of 3′-untranslated region were amplified by PCR, digested with NdeI and BamHI followed by ligation into the protein expression vector pET-11b. All primers were synthesized by the Laboratory for Macromolecular Structure (Purdue University, IN). Primers for PCR amplification of ttNOX were 5′-[…]-3′ (forward, SEQ ID NO: 6) and 5′[…]-3′ (reverse, SEQ ID NO: 7). Primers for processed form of tNOX were 5′-[…]-3′ (forward, SEQ ID NO: 8) and 5′-[…]-3′ (reverse, SEQ ID NO: 9). Primers for histidine-tagged ttNOX were 5′-[…]-3′ (forward, SEQ ID NO: 10) and 5′-[…]-3′ (reverse, SEQ ID NO: 11). The forward primer was designed to incorporate six histidine residues to the amino terminus of tNOX protein. The amplification performed was with an initiation step of 94C. for 90 sec, followed by 90 sec of denaturation at 94C., 90 sec of annealing at 55C., and 90 sec of extension at 72C. for 29 cycles.
E. coli [BL21 (DE3)] were transfected and grown in LB medium containing ampicillin (100 μg/ml) for 16 hr at 25C. and harvested. DNA sequences of the ligation products were confirmed by DNA sequencing. Expressions of all forms of tNOX were confirmed by SDS-PAGE with silver staining and immunoblotting. Immunoblot analysis was with anti-tNOX monoclonal antibody. Detection used alkaline […] conjugated anti-mouse antibody.

For test [1], the system named is COS cells stably transfected with tNOX cDNA. Put plainly: Growth inhibition of COS cells transfected with tNOX cDNA. Type of test: cell-based, African monkey. The conditions noted are these: for EC50: Primates, COS cells stably transfected with tNOX cDNA, growth inhibition; for change of growth response (susceptibility) by tNOX cDNA transfection: tNOX cDNA-transfected vs control COS cells. From the text: Transient transfection of COS cells were with pcDNA3.1 (Invitrogen) and a Calcium Phosphate Transfection Kit (Invitrogen, Carlsbad, Calif.) according to the manufacturer's protocol. ttNOX cDNA was first amplified by PCR using primers 5═-[…]-3′ (forward; SEQ ID NO: 12) and 5′-[…]-3′ (reverse, SEQ ID NO: 13). The PCR product was then amplified using primers 5′-[…]-3′ (forward, SEQ ID NO: 14) and 5′-[…]-3′ (reverse, SEQ ID NO: 15) to construct a HindIII site at 5′ end of the nontemplate strand. The product was double digested using HindIII and BamHI enzymes. The digested products were separated on an agarose gel and extracted using a DNA Extraction Kit (Qiagen, Valencia, Calif.). The DNA was then ligated into a pcDNA3.1 vector that contains a cytomegalovirus enhancer-promoter for high levels of expression. For propagation of the plasmid DNA, the ligation product was used to transform XL-1 blue competent cells using heat pulse technique (Sambrook et al., 1989, supra). The positive clones were identified by PCR. The resulting plasmid was then used to transfect COS cells.
(§1) COS-1 cells (African monkey kidney cell line), were plated one day prior to transfection at 4×10^5 cells per 100-mm dish. Thirty-six μl of 2 M CaCl2 and 30 μg of pcDNA3.1 or pcDNA3.1-tNOX in 300 μl sterile H2O were slowly added dropwise into 300 μl of 2× Hepes Buffered Saline (HBS) at room temperature for 30 min. The transfection mixtures then were added dropwise to the media to the cells and incubated overnight at 37C. After overnight exposure to the DNA precipitate, the cells were washed twice with PBS and 3 ml of DMSO were added for 2.5 min. The DMSO then was removed and cells were fed with fresh media for 2-3 days. tNOX expression was evaluated on the basis of enzymatic activity and Western blot analysis. For selection of stable transfectants, antibiotic G418 sulfate was used (Invitrogen, Carlsbad, Calif.). After the COS cells were transfected with the tNOX cDNA expression plasmid, 0.5 mg/ml of G418 sulfate was added into the media twice a week and the cultures were maintained until colonies 2 to 3 mm in diameter were formed. A total of three colonies were selected and trypsinized individually and then transferred into wells of a 24-well plate and then into a 35 mm petri dish. Cells were harvested at 80% confluency. Transfections were confirmed by immunoblotting.

Test [2] concerns plasma membranes prepared from HeLa cells. The conditions noted are these: cited from earlier work.
The next test relates to COS cells. Put plainly: Growth inhibition of control COS cells (nontransfected / vector alone). Type of test: cell-based, African monkey. The conditions noted are these: for EC50: Primates, nontransfected COS cells, growth inhibition. The protocol: as §1
Another test concerns the target T2, tNOX (Homo sapiens, UniProt Q16206).
T2 sequence (Q16206 1-610): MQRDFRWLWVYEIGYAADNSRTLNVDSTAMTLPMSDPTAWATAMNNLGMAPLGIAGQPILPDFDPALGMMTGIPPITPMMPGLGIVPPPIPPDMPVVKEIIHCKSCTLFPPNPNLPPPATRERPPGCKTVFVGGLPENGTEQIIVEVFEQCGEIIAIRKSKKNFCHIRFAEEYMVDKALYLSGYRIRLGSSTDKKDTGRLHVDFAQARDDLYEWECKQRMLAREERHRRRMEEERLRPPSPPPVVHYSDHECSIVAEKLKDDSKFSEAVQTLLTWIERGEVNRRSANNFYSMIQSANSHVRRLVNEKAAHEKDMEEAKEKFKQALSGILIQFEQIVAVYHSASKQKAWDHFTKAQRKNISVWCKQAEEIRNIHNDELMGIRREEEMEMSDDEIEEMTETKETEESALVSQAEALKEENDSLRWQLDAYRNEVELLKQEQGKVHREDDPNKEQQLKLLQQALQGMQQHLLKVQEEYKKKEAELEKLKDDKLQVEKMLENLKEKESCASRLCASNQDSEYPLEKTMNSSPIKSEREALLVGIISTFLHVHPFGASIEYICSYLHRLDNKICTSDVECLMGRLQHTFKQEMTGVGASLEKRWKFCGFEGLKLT
The conditions noted are these: cited from earlier work.

Another test has as its system CNOX. The conditions noted are these: cited from earlier work.

With `Cc1ccc(S(=O)(=O)NC(=O)Nc2ccc(Cl)cc2)cc1` [LY181984, N-(4-methylphenylsulfonyl)-N′-(4-chlorophenyl)urea], on ttNOX (truncated tNOX) (1 μM), the “inhibition of NADH oxidase activity of induced bacterial extract” value is “completely inhibited”. The results for the EC50 (in test [1]; in the test on COS cells) were 3000 nM and 20000 nM, respectively. For the same compound, in test [2], the “oxygen uptake by HeLa plasma membranes” value is “inhibited”.

With (−)-epigallocatechin gallate [EGCg], the “effect on activity of tNOX” value at tNOX was “inhibits”. Moreover, the “change of growth response (susceptibility) by tNOX cDNA transfection” value (“change of growth response” below) in test [1] is on record as “more susceptible”. In addition, the “effect on constitutive CNOX” value with CNOX is “largely without effect”.

As for `Cc1ccc(S(=O)(=O)NC(=O)Nc2ccccc2)cc1` [LY181985, N-(4-methylphenylsulfonyl)-N′-(4-phenyl)urea], the growth inhibition entry (in test [1] (cells transfected with tNOX cDNA); in the test with COS cells (control cells transfected with vector alone)) was “did not inhibit” throughout.

`CN(Cc1cnc2nc(N)nc(N)c2n1)c1ccc(C(=O)N[C@@H](CCC(=O)O)C(=O)O)cc1` [Methotrexate, methotrexate]: in test [1], the midpoint of the response, the EC50, lay at 1000 nM and the “change of growth response” value is given as “unaffected”. Further, the EC50 in the test with COS cells was found to be 1000 nM.

`COc1cccc2c1C(=O)c1c(O)c3c(c(O)c1C2=O)C[C@@](O)(C(=O)CO)C[C@@H]3O[C@H]1C[C@H](N)[C@H](O)[C@H](C)O1` [Adriamycin, adriamycin]: the results for the EC50 (in test [1]; in the test on COS cells) were 40 nM and 300 nM, respectively.

Take `COc1cc(CNC(=O)CCCC/C=C/C(C)C)ccc1O` [Capsaicin, 8-methyl-N-vanillyl-6-noneamide]: the “inhibition of the activity of the bacterially expressed protein” value at ttNOX (truncated tNOX) is on record as “complete”. For the same compound, the “periodic NADH oxidase activity of induced bacterial extracts” value on ttNOX (truncated tNOX) (in the presence of 1 or 100 μM capsaicin) is “no periodic activity”. In test [1], the EC50 is 1300 nM and the “change of growth response” value is recorded as “more susceptible”. This compound yielded an EC50 in the test on COS cells of 13000 nM.
